This passage reports IC50 results from patent publication USRE48711E1, “Apoptosis signal-regulating kinase inhibitors” (Gilead Sciences, Inc., priority 2009, dated 2021).

This test concerns the target ASK1 (Apoptosis Signal-Regulating Kinase 1) (Homo sapiens (Human), UniProt Q99683). Briefly: ASK1 (Apoptosis Signal-Regulating Kinase 1) TR-FRET Kinase Assay (Biochemical IC50). Particulars: TR-FRET, biotin-MBP substrate, 20 min pre-incubation, ATP added as 300 μM solution.

Sequence of ASK1 (Apoptosis Signal-Regulating Kinase 1) (Q99683 649-946): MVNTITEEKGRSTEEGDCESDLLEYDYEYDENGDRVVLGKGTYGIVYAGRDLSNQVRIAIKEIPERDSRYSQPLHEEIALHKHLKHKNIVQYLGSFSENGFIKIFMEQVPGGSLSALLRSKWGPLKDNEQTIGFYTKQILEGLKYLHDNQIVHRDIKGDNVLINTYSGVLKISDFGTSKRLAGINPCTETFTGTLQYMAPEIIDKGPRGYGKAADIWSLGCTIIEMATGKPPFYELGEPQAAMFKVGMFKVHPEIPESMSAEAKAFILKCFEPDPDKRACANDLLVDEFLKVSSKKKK

Regarding `Cc1cnc(C(=O)Nc2cccc(-c3nncn3C3CC3)n2)cc1-c1ccc(C2CC2)nc1` [Example 215, 6-cyclopropyl-N-(6-(4-cyclopropyl-4H-1,2,4-triazol-3-yl)pyridin-2-yl)-5′-methyl-3,4′-bipyridine-2′-carboxamide], the IC50 came out at 0.03 µM. In the case of `CC(C)c1cn(-c2ccnc(C(=O)Nc3cccc(-c4nncn4C4CC4)n3)c2)cn1` [Example 167, N-(6-(4-cyclopropyl-4H-1,2,4-triazol-3-yl)pyridin-2-yl)-4-(4-isopropyl-1H-imidazol-1-yl)picolinamide], inhibition was half-maximal at 0.007 µM (IC50).

Consider `O=C(Nc1cccc(-c2nncn2C2CC2)c1)c1cc(-c2cncc(C3CC3)c2)ccn1` [Example 156, 5-cyclopropyl-N-(3-(4-cyclopropyl-4H-1,2,4-triazol-3-yl)phenyl)-3,4′-bipyridine-2′-carboxamide], for which the 50% inhibitory concentration (IC50) was 0.011 µM.

With `Cn1cnnc1-c1cccc(NC(=O)c2cc(-c3cnc4ccccn34)ccn2)c1` [Example 13, 4-(imidazo[1,2-a]pyridin-3-yl)-N-(3-(4-methyl-4H-1,2,4-triazol-3-yl)phenyl)picolinamide], the IC50 came out at 0.044 µM. The result for `Nc1ccc(-c2ccnc(C(=O)Nc3cccc(-c4nncn4C4CC4)c3)c2)cn1` [Example 22, 6-amino-N-(3-(4-cyclopropyl-4H-1,2,4-triazol-3-yl)phenyl)-3,4′-bipyridine-2′-carboxamide] reads 0.009 µM; that for `Cc1cc(-c2ccnc(C(=O)Nc3cccc(-c4nncn4C4CC4)c3)c2)cnc1F` [Example 48, N-(3-(4-cyclopropyl-4H-1,2,4-triazol-3-yl)phenyl)-6-fluoro-5-methyl-3,4′-bipyridine-2′-carboxamide], 0.037 µM. The figure for `Cn1cncc1-c1ccnc(C(=O)Nc2cccc(-c3nncn3C3CC3)c2)c1` [Example 36, N-(3-(4-cyclopropyl-4H-1,2,4-triazol-3-yl)phenyl)-4-(1-methyl-1H-imidazol-5-yl)picolinamide] is 0.018 µM; for `CCS(=O)(=O)c1ccc(-c2ccnc(C(=O)Nc3cccc(-c4nncn4C4CC4)c3)c2)cc1` [Example 117, N-(3-(4-cyclopropyl-4H-1,2,4-triazol-3-yl)phenyl)-4-(4-(ethylsulfonyl)phenyl)picolinamide] it is 0.012 µM. Compound `O=C(Nc1ccnc(-c2nncn2C2CC2)c1)c1cc(-c2cnc3ccccc3c2)ccn1` [Example 153, N-(2-(4-cyclopropyl-4H-1,2,4-triazol-3-yl)pyridin-4-yl)-4-(quinolin-3-yl)picolinamide] returned an IC50 of 0.409 µM.

`COC[C@H](C)n1cnnc1-c1cccc(NC(=O)c2cc(-c3ccc(C4CC4)nc3)ccn2)c1` [Example 232, (S)-6-cyclopropyl-N-(3-(4-(1-methoxypropan-2-yl)-4H-1,2,4-triazol-3-yl)phenyl)-3,4′-bipyridine-2′-carboxamide] came in with a half-maximal inhibitory concentration (IC50) of 0.017 µM. The result for `O=C(Nc1cccc(-c2nncn2C2CC2)c1)c1cc(-c2cncnc2)ccn1` [Example 24, N-(3-(4-cyclopropyl-4H-1,2,4-triazol-3-yl)phenyl)-4-(pyrimidin-5-yl)picolinamide] reads 0.021 µM; that for `O=C(Nc1cccc(-c2nncn2C2CC2)c1)c1cc(-c2cnc3ccn(CC(F)(F)F)c3c2)ccn1` [Example 244, N-(3-(4-cyclopropyl-4H-1,2,4-triazol-3-yl)phenyl)-4-(1-(2,2,2-trifluoroethyl)-1H-pyrrolo[3,2-b]pyridin-6-yl)picolinamide], 0.025 µM; that for `C[C@H](O)[C@H](C)n1cnnc1-c1cccc(NC(=O)c2cc(-c3ccc(C4CC4)nc3)ccn2)n1` [Example 246, 6-cyclopropyl-N-(6-(4-((2S,3S)-3-hydroxybutan-2-yl)-4H-1,2,4-triazol-3-yl)pyridin-2-yl)-3,4′-bipyridine-2′-carboxamide], 0.006 µM. The result for `COc1ccc(-n2cnc(C3CC3)c2)cc1C(=O)Nc1cccc(-c2nncn2C2CC2)c1` [Example 272, 5-(4-cyclopropyl-1H-imidazol-1-yl)-N-(3-(4-cyclopropyl-4H-1,2,4-triazol-3-yl)phenyl)-2-methoxybenzamide] reads 0.011 µM; that for `O=C(Nc1cccc(-c2nncn2C2CC2)n1)c1cc(-n2cnc3c2CCNC3C(F)(F)F)ccn1` (stereo not shown) [Example 195, N-(6-(4-cyclopropyl-4H-1,2,4-triazol-3-yl)pyridin-2-yl)-4-(4-(trifluoromethyl)-4,5,6,7-tetrahydro-1H-imidazo[4,5-c]pyridin-1-yl)picolinamide], 0.008 µM; that for `CC(C)c1cn(-c2cccc(C(=O)Nc3cccc(-c4nncn4C4CC4)n3)c2)cn1` [Example 193, N-(6-(4-cyclopropyl-4H-1,2,4-triazol-3-yl)pyridin-2-yl)-3-(4-isopropyl-1H-imidazol-1-yl)benzamide], 0.005 µM.

Consider `C[C@@H](CO)n1cnnc1-c1cccc(NC(=O)c2cc(-c3cccnc3)ccn2)c1` [Example 20, (S)-N-(3-(4-(1-hydroxypropan-2-yl)-4H-1,2,4-triazol-3-yl)phenyl)-3,4′-bipyridine-2′-carboxamide], for which half-maximal inhibition (IC50) was put at 0.039 µM. `O=C(Nc1cccc(-c2nncn2C2CC2)c1)c1cc(-c2ccc(N3CCNC3=O)cc2)ccn1` [Example 105, N-(3-(4-cyclopropyl-4H-1,2,4-triazol-3-yl)phenyl)-4-(4-(2-oxoimidazolidin-1-yl)phenyl)picolinamide]: 0.015 µM corresponded to half-maximal inhibition (IC50). The figure for `Cc1ccc2c(-c3ccc(C4CC4)nc3)cc(C(=O)Nc3cccc(-c4nncn4C4CC4)n3)nc2c1C` [Example 236, N-(6-(4-cyclopropyl-4H-1,2,4-triazol-3-yl)pyridin-2-yl)-4-(6-cyclopropylpyridin-3-yl)-7,8-dimethylquinoline-2-carboxamide] is 0.139 µM; for `Nc1ncccc1-c1ccnc(C(=O)Nc2cccc(-c3nncn3C3CC3)c2)c1` [Example 66, 2-amino-N-(3-(4-cyclopropyl-4H-1,2,4-triazol-3-yl)phenyl)-3,4′-bipyridine-2′-carboxamide] it is 0.086 µM; for `O=C(Nc1cccc(-c2nncn2C2CC2)c1)c1cc(-c2ccc(C3CCCC3)nc2)ccn1` [Example 109, 6-cyclopentyl-N-(3-(4-cyclopropyl-4H-1,2,4-triazol-3-yl)phenyl)-3,4′-bipyridine-2′-carboxamide] it is 0.021 µM. Take `COc1ncc(-c2ccnc(C(=O)Nc3cccc(-c4nncn4C4CC4)c3)c2)c(OC)n1` [Example 49, N-(3-(4-cyclopropyl-4H-1,2,4-triazol-3-yl)phenyl)-4-(2,4-dimethoxypyrimidin-5-yl)picolinamide]: the midpoint of inhibition, the IC50, lay at 0.008 µM. `CCN1CCN(c2ccnc(C(=O)Nc3cccc(-c4nncn4C4CC4)c3)c2)CC1=O` [Example 177, N-(3-(4-cyclopropyl-4H-1,2,4-triazol-3-yl)phenyl)-4-(4-ethyl-3-oxopiperazin-1-yl)picolinamide]: inhibition was half-maximal at 0.047 µM (IC50). The compound `O=C(Nc1cccc(-c2nncn2C2CC2)n1)c1cc(-n2cnc(C3CC3)c2)c2ccccc2n1` [Example 226, 4-(4-cyclopropyl-1H-imidazol-1-yl)-N-(6-(4-cyclopropyl-4H-1,2,4-triazol-3-yl)pyridin-2-yl)quinoline-2-carboxamide] displayed an IC50 of 0.016 µM. The result for `Cc1cc(-c2ccc(C3CC3)nc2)cc(C(=O)Nc2cccc(-c3nncn3C3CC3)n2)n1` [Example 233, 6-cyclopropyl-N-(6-(4-cyclopropyl-4H-1,2,4-triazol-3-yl)pyridin-2-yl)-6′-methyl-3,4′-bipyridine-2′-carboxamide] reads 0.014 µM.

`O=C(Nc1cccc(-c2nncn2C2CC2c2ccccc2)c1)c1cc(-c2ccc(C3CC3)nc2)ccn1` (stereo not shown) [Example 267, 6-cyclopropyl-N-(3-(4-(2-phenylcyclopropyl)-4H-1,2,4-triazol-3-yl)phenyl)-3,4′-bipyridine-2′-carboxamide] returned an IC50 of 0.425 µM. The figure for `O=C(Nc1cccc(-c2nncn2C2CC2)c1)c1cc(-c2cnc3ccoc3c2)ccn1` [Example 142, N-(3-(4-cyclopropyl-4H-1,2,4-triazol-3-yl)phenyl)-4-(furo[3,2-b]pyridin-6-yl)picolinamide] is 0.011 µM; for `Cc1cn(-c2ccnc(C(=O)Nc3cccc(-c4nncn4C4CC4)c3)c2)cn1` [Example 42, N-(3-(4-cyclopropyl-4H-1,2,4-triazol-3-yl)phenyl)-4-(4-methyl-1H-imidazol-1-yl)picolinamide] it is 0.011 µM; for `CC(C)n1cnnc1-c1cccc(NC(=O)c2cc(-c3ccc(C4CC4)nc3)ccn2)c1` [Example 219, 6-cyclopropyl-N-(3-(4-isopropyl-4H-1,2,4-triazol-3-yl)phenyl)-3,4′-bipyridine-2′-carboxamide] it is 0.016 µM. The result for `CC(C)Oc1ccc(-c2ccnc(C(=O)Nc3cccc(-c4nncn4C4CC4)c3)c2)cn1` [Example 94, N-(3-(4-cyclopropyl-4H-1,2,4-triazol-3-yl)phenyl)-6-isopropoxy-3,4′-bipyridine-2′-carboxamide] reads 0.061 µM. The figure for `O=C(Nc1cccc(-c2nncn2CC2(O)CC2)c1)c1cc(-c2cccnc2)ccn1` [Example 61, N-(3-(4-((1-hydroxycyclopropyl)methyl)-4H-1,2,4-triazol-3-yl)phenyl)-3,4′-bipyridine-2′-carboxamide] is 0.174 µM; for `CC(C)(C)NC(=O)c1cncc(-c2ccnc(C(=O)Nc3cccc(-c4nncn4C4CC4)c3)c2)c1` [Example 75, N5-tert-butyl-N2′-(3-(4-cyclopropyl-4H-1,2,4-triazol-3-yl)phenyl)-3,4′-bipyridirie-2′,5-dicarboxamide] it is 0.01 µM. Compound `CN1CCc2ncc(-c3ccnc(C(=O)Nc4cccc(-c5nncn5C5CC5)c4)c3)cc2C1` [Example 173, N-(3-(4-cyclopropyl-4H-1,2,4-triazol-3-yl)phenyl)-4-(6-methyl-5,6,7,8-tetrahydro-1,6-naphthyridin-3-yl)picolinamide] came in with a concentration for half-maximal inhibition (IC50) of 0.021 µM. As to `C[C@H](n1cnnc1-c1cccc(NC(=O)c2cc(-c3cccnc3)ccn2)c1)C(F)(F)F` [Example 63, (S)-N-(3-(4-(1,1,1-trifluoropropan-2-yl)-4H-1,2,4-triazol-3-yl)phenyl)-3,4′-bipyridine-2′-carboxamide], the IC50 came out at 0.021 µM.
